Laboratory results: patent publication US5527785A, “Selectin receptor modulating compositions” (The Regents of the University of California, priority 1993, dated 1996)
One block for each molecule: values may come before it.

Columns and labels:
E-selectin-Ig [1] = assay: LS180 colon cancer cell adhesion to immobilized E-selectin-Ig; type: cell-based; settings: FIG. 5
Experimental: (§1) The colon carcinoma cell line, LS180, is a useful model for studying selectin-dependent adhesion since it binds to all three selectins. E-, P-, and L-selectin-Ig were immobilized on microwell (Terasaki) plates coated with protein A. Five μl of buffer containing crude heparin, di-, tetra- or hexasaccharide heparin fragments or antibody (as described above) was incubated for 20 minutes at 4° C. Five μl containing 5000 LS180 cells was added for 30 minutes at 4° C. to allow adhesion to occur. The wells were then washed, fixed with glutaraldehyde, and the bound cells counted by microscopic observation.

P-selectin-Ig [2] = assay: LS180 colon cancer cell adhesion to immobilized P-selectin-Ig; type: cell-based; settings: FIG. 5
Experimental: as §1

P-selectin-Ig [3] = assay: Competition ELISA, P-selectin-Ig binding to BSA-sLe^x; settings: Table 1, P-selectin; approximate IC50 values
Experimental: (§2) Briefly, microtiter plates were coated with neoglycoprotein BSA-sLe^x, BSA-sLe^a, (Chembiomed, Alberta, CAN) or unconjugated BSA (0.11 μg/well) in 50 mM carbonate bicarbonate buffer, pH 9.5. Plates were blocked with 20 mg/ml BSA in ELISA buffer (150 mM NaCl, 20 mM HEPES, 2 mM CaCl2, 0.25 mM thimerosal, pH 7.4). E- and P-selectin-Ig fusion proteins (20 nM) were coincubated in the coated, blocked microtiter wells with serially diluted heparin fragments (typically 0-1000 μg/ml) in ELISA buffer containing 10 mg/ml BSA for three hours at room temperature. […] Color development was stopped in the linear range (typically after 4-16 minutes) using 5 μl 4 NH2 SO4, and endpoint optical density measured at 490 nm.

L-selectin-Ig [4] = assay: Competition ELISA, L-selectin-Ig binding to BSA-sLe^x; settings: for inhibition of L-selectin-Ig binding to BSA-sLe^x (in words): competitive ELISA, FIG. 8
P-selectin [5] = assay: HL60 cell adhesion to COS cells transfected with P-selectin cDNA; type: cell-based; settings: at the concentrations tested in these adhesion assays (HL60 and PMN to selectin-transfected COS)
Experimental: COS cells were grown on coverslips in Dulbecco's minimal essential media with 10% fetal calf serum. After 72 hours, polysaccharides were added to the COS cell cultures to achieve final concentrations of 0, 0.1, 1.0, 10.0, 100.0 or 1000.0 μg/ml. Polysaccharides included crude heparin, dermatan sulfate, heparin tetrasaccharide, and heparin hexasaccharide. HL60 cells, a leukocytic cell line, were added to the COS cell cultures 30 minutes after the polysaccharides were added and incubated for 30 minutes. The coverslips were then washed with media to remove unbound cells and COS cells with three or more HL60 cells bound (rosettes) were counted using phase contrast microscopy.
Briefly, subconfluent monolayers were incubated at 37° C. for 2.5 hours with Dulbecco's modified Eagle's medium (DMEM) with 10% NuSerum (Collaborative Research, Bedford, Mass.) containing 10 μg cDNA, 400 μg/mL DEAE-dextran (Sigma), and 100 μM chloroquine diphosphate (Sigma). […] HL60 cell adhesion was quantitated as number of HL60 rosettes (2 or more cells bound) per 100 transfected COS cells. Number of transfected COS was determined using mAbs specific for E-, P-, and L-selectin (see below) followed by secondary reaction with a fluorescein-conjugated anti-immunoglobulin antibody (Cappel, Durham, N.C.). […]

L-selectin-Ig [6] = assay: LS180 colon cancer cell adhesion to immobilized L-selectin-Ig; type: cell-based; settings: FIG. 5
Experimental: as §1

E-selectin-Ig [7] = assay: Competition ELISA, E-selectin-Ig binding to BSA-sLe^x
Experimental: as §2

P-selectin [8] = settings: Larsen, et al.; cited from earlier work
L-selectin-Ig [9] = settings: 5 mM; cited from earlier work
L-selectin-Ig [10] = settings: 11 mM; cited from earlier work
L-selectin-Ig [11] = settings: Table 1, L-selectin; footnote: Foxall, et al., supra; cited from earlier work

IC50, inhibition of P-selectin-Ig binding to BSA-sLe^x (P-selectin-Ig [3]): > 1000 µg/mL | IC50, inhibition of L-selectin-Ig binding to BSA-sLe^x (L-selectin-Ig [4]; Table 1, L-selectin, approximate IC50 values): > 1000 µg/mL | inhibition of L-selectin-Ig binding to BSA-sLe^x (in words) (L-selectin-Ig [4]; listed as tris-sulfated heparin disaccharide): some inhibition | inhibition of L-selectin-Ig binding to BSA-sLe^x (in words) (L-selectin-Ig [4]; listed as trisulfated disaccharide fragment of heparin): somewhat effective
Compound: O=C(O)C1=C[C@H](O)[C@@H](OS(=O)(=O)O)[C@H](O[C@H]2[C@H](O)[C@@H](NS(=O)(=O)O)C(O)O[C@@H]2COS(=O)(=O)O)O1 (some centres unmarked) [Di, UA2Sα1-4GIcNS6S]
adhesion of LS180 cells to plates coated with E-selectin-Ig (in words) (E-selectin-Ig [1]): no effect | adhesion of LS180 cells to plates coated with P-selectin-Ig (in words) (P-selectin-Ig [2]): no effect | blocking activity in the COS cell adhesion assays (in words) (P-selectin [5]): little blocking activity | adhesion of LS180 cells to plates coated with L-selectin-Ig (in words) (L-selectin-Ig [6]): no effect

IC50, inhibition of L-selectin-Ig (L-selectin-Ig [4]; competition ELISA, FIG. 12): 61 µg/mL | IC50 (L-selectin-Ig [4]; competition ELISA, FIG. 12, read-out: IC50, inhibition of L-selectin-Ig): 46 µM | activity relative to the size fractionated tetrasaccharide mixture (L-selectin-Ig [4]; competition ELISA, L-selectin-Ig): 2-4 fold | activity against L-selectin relative to sLe^x in non-cellular assays (L-selectin-Ig [4]; non-cellular assays, F4 vs sLe^x): over 100 fold | activity against E-selectin-Ig (in words) (E-selectin-Ig [7]; concentrations up to 1 mM): no activity
Compound: O=C(O)C1=C[C@H](O)[C@@H](OS(=O)(=O)O)[C@H](O[C@H]2[C@H](O)[C@@H](NS(=O)(=O)O)[C@@H](O[C@H]3[C@H](O)[C@@H](OS(=O)(=O)O)[C@H](O[C@H]4[C@H](O)[C@@H](NS(=O)(=O)O)C(O)O[C@@H]4COS(=O)(=O)O)O[C@H]3C(=O)O)O[C@@H]2COS(=O)(=O)O)O1 (some centres unmarked) [F4, ΔUA2Sα1-4DGIcNS6Sα1-4LIdoA2Sα1-4DGIcNS6S]

Compound: CC(=O)N[C@H]1[C@H](O[C@H]2[C@@H](O)[C@@H](CO)O[C@@H](O[C@H]3[C@H](O)[C@@H](O)C(O)O[C@@H]3CO)[C@@H]2O)O[C@H](CO)[C@@H](O[C@@H]2O[C@H](CO)[C@H](O)[C@H](O)[C@H]2O)[C@@H]1O[C@@H]1O[C@@H](C)[C@@H](O)[C@@H](O)[C@@H]1O (some centres unmarked) [LNF-III]
P-selectin-dependent rosetting of activated platelets to leukocytes (in words) (P-selectin [8]): blocked

IC50, inhibition of P-selectin-Ig binding to BSA-sLe^x (P-selectin-Ig [3]): > 1000 µg/mL | activity against L-selectin-Ig binding (in words) (L-selectin-Ig [4]; concentrations of up to 1 mM): no measurable activity | IC50 (E-selectin-Ig [7]; read-out: IC50, E-selectin-Ig binding to immobilized BSA-sLe^x): 510 ± 60 µM
Compound: CC(=O)NC1C(O)CC(OC2C(O)C(CO)OC(OC3C(CO)OC(O)C(NC(C)=O)C3OC3OC(C)C(O)C(O)C3O)C2O)(C(=O)O)OC1C(O)C(O)CO (centres unmarked) [sLex, Neu5Acα2-3Galβ1-4(Fucα1-3)GIcNAc, reference compound]
block of L-selectin-Ig binding to immobilized sLe^x glycolipid (L-selectin-Ig [9]): approximately 50% | block of L-selectin-Ig binding to glycam-1 (L-selectin-Ig [10]): approximately 60% | IC50, inhibition of L-selectin-Ig binding (L-selectin-Ig [11]): 4100 µg/mL
